From PubChem BioAssay AID1963875 (Molecular Pharmacology Branch, DTP, NCI, 2024)

Tested on: KRAS-mutant PDC complex spheroid viability
Experiment: Anticancer human tumor 186277-243-T-J2-PDC patient-derived colon adenocarcinoma cell line growth inhibition [KRAS2]
Details: for IC50: curve of first compound; for viability, T/C: stronger effect = lower value
How it was run: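 Combination screen of spheroid viability in tumor-cell co-cultures with endothelial (HUVEC) and mesenchymal stem cell stroma. Each agent was tested in half-log dilutions, topping at clinical Cmax or at 10 microM without a known Cmax.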

[1] = second compound 0.1 µM, first compound 0.0316 µM
[2] = second compound 0.1 µM, first compound 0.1 µM
[3] = second compound 0.316 µM, first compound 0.0316 µM
[4] = second compound 0.316 µM, first compound 0.1 µM
[5] = second compound 1 µM, first compound 0.0316 µM
[6] = second compound 1 µM, first compound 0.1 µM
[7] = second compound 3.16 µM, first compound 0.0316 µM
[8] = second compound 3.16 µM, first compound 0.1 µM
[9] = second compound 10 µM, first compound 0.0316 µM
[10] = second compound 10 µM, first compound 0.1 µM
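For viability, T/C in this document: viability read after seven days of compound exposure; 100% = DMSO vehicle-treated spheroids so lower means less viable.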

CN(C)C/C=C/C(=O)Nc1cc2c(Nc3ccc(F)c(Cl)c3)ncnc2cc1O[C@H]1CCOC1 + CNCc1ccccc1-c1csc(C(C)Nc2nc(C)nc3cc(OC)c(OC)cc23)c1 showed an IC50 (second compound 0.1 µM) greater than 100 nM, an IC50 (second compound 0.316 µM) greater than 100 nM and an IC50 (second compound 1 µM) greater than 100 nM. For the same compound, the IC50 (second compound 3.16 µM) was 7.32 nM, the IC50 (second compound 10 µM) was less than 0.316 nM and the viability, T/C (second compound 0.1 µM, first compound 0.000316 µM) was 100%. For the same compound, the viability, T/C (second compound 0.1 µM, first compound 0.001 µM) was 100%, the viability, T/C (second compound 0.1 µM, first compound 0.00316 µM) was 110% and the viability, T/C (second compound 0.1 µM, first compound 0.01 µM) was 117%. The viability, T/C [1] was 127%, the viability, T/C [2] was 108% and the viability, T/C (second compound 0.316 µM, first compound 0.000316 µM) was 110%. For the same compound, the viability, T/C (second compound 0.316 µM, first compound 0.001 µM) was 96.2%, the viability, T/C (second compound 0.316 µM, first compound 0.00316 µM) was 113% and the viability, T/C (second compound 0.316 µM, first compound 0.01 µM) was 119%. The viability, T/C [3] was 109%, the viability, T/C [4] was 96% and the viability, T/C (second compound 1 µM, first compound 0.000316 µM) was 108%. For the same compound, the viability, T/C (second compound 1 µM, first compound 0.001 µM) was 107%, the viability, T/C (second compound 1 µM, first compound 0.00316 µM) was 102% and the viability, T/C (second compound 1 µM, first compound 0.01 µM) was 120%. It also gave a viability, T/C [5] of 119%, a viability, T/C [6] of 95.9% and a viability, T/C (second compound 3.16 µM, first compound 0.000316 µM) of 108%. It also gave a viability, T/C (second compound 3.16 µM, first compound 0.001 µM) of 103%, a viability, T/C (second compound 3.16 µM, first compound 0.00316 µM) of 109% and a viability, T/C (second compound 3.16 µM, first compound 0.01 µM) of 29%. The viability, T/C [7] was 16.4%, the viability, T/C [8] was 5.67% and the viability, T/C (second compound 10 µM, first compound 0.000316 µM) was 0.21%. For the same compound, the viability, T/C (second compound 10 µM, first compound 0.001 µM) was 0.22%, the viability, T/C (second compound 10 µM, first compound 0.00316 µM) was 0.19% and the viability, T/C (second compound 10 µM, first compound 0.01 µM) was 0.15%. It also gave a viability, T/C [9] of 0.13% and a viability, T/C [10] of 0.33%.

O=C(c1cc(Cc2n[nH]c(=O)c3ccccc23)ccc1F)N1CCN(C(=O)C2CC2)CC1 + CNCc1ccccc1-c1csc(C(C)Nc2nc(C)nc3cc(OC)c(OC)cc23)c1 showed an IC50 (second compound 0.1 µM) of 6450 nM, an IC50 (second compound 0.316 µM) of 6160 nM and an IC50 (second compound 1 µM) of 5690 nM. For the same compound, the IC50 (second compound 3.16 µM) was 639 nM, the IC50 (second compound 10 µM) was less than 31.6 nM and the viability, T/C [1] was 110%. The viability, T/C [2] was 101%, the viability, T/C (second compound 0.1 µM, first compound 0.316 µM) was 95.6% and the viability, T/C (second compound 0.1 µM, first compound 1 µM) was 114%. It also gave a viability, T/C (second compound 0.1 µM, first compound 3.16 µM) of 78.6%, a viability, T/C (second compound 0.1 µM, first compound 10 µM) of 32.4% and a viability, T/C [3] of 107%. The viability, T/C [4] was 102%, the viability, T/C (second compound 0.316 µM, first compound 0.316 µM) was 111% and the viability, T/C (second compound 0.316 µM, first compound 1 µM) was 106%. For the same compound, the viability, T/C (second compound 0.316 µM, first compound 3.16 µM) was 73.8%, the viability, T/C (second compound 0.316 µM, first compound 10 µM) was 32.7% and the viability, T/C [5] was 104%. It also gave a viability, T/C [6] of 97.2%, a viability, T/C (second compound 1 µM, first compound 0.316 µM) of 108% and a viability, T/C (second compound 1 µM, first compound 1 µM) of 104%. For the same compound, the viability, T/C (second compound 1 µM, first compound 3.16 µM) was 66.9%, the viability, T/C (second compound 1 µM, first compound 10 µM) was 33.8% and the viability, T/C [7] was 94.8%. The viability, T/C [8] was 107%, the viability, T/C (second compound 3.16 µM, first compound 0.316 µM) was 94.1% and the viability, T/C (second compound 3.16 µM, first compound 1 µM) was 16.2%. The viability, T/C (second compound 3.16 µM, first compound 3.16 µM) was 45.6%, the viability, T/C (second compound 3.16 µM, first compound 10 µM) was 3.95% and the viability, T/C [9] was 0.19%. The viability, T/C [10] was 0.21%, the viability, T/C (second compound 10 µM, first compound 0.316 µM) was 0.19% and the viability, T/C (second compound 10 µM, first compound 1 µM) was 0.14%. For the same compound, the viability, T/C (second compound 10 µM, first compound 3.16 µM) was 0.14% and the viability, T/C (second compound 10 µM, first compound 10 µM) was 0.19%.
